Data on nine compounds can be found in US12415794B2 (Edgewise Therapeutics, Inc., priority 2018, dated 2025).

The subject of experiment [1] is embryos from zebrafish model of DMD. The following applies: Li and Amer, PLoSONE, 2015; cited from earlier work.
The target in experiment [2] is T1, cardiac myofibrils (myosin ATPase).
T1 construct: frozen myofibril pellets obtained from cardiac tissue; from tissue
Put plainly: Cardiac Myofibril ATPase Assay (counter screen). The class given is biochemical. Conditions: myofibrils 1.0 mg/mL, KCl omitted. The method in brief:
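Myosin ATPase rate followed via NADH disappearance at 340 nm, coupled through pyruvate kinase and lactate dehydrogenase, using cardiac myofibril pellets (final 1.0 mg/mL) without KCl. IC50 values reflect rate reduction compared with vehicle-treated wells.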
On the technique in general: A counterscreen serves to expose hits that act by an unwanted route or on another target.

For experiment [3], the target named is skeletal myofibrils (myosin ATPase). Put plainly: Skeletal Myofibril ATPase Assay. It counts as biochemical. The method in brief: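 Rates of NADH loss (A340, kinetic read over 45 min) report ADP generation by myofibrillar myosin, coupled through pyruvate kinase and lactate dehydrogenase; pCa buffer at pH 7.0. IC50 fitted by 4-parameter logistic after normalizing to 1% DMSO controls; cardiac myofibrils served for selectivity.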

Structures are written as SMILES.

T1 sequence (P12883 whole entry): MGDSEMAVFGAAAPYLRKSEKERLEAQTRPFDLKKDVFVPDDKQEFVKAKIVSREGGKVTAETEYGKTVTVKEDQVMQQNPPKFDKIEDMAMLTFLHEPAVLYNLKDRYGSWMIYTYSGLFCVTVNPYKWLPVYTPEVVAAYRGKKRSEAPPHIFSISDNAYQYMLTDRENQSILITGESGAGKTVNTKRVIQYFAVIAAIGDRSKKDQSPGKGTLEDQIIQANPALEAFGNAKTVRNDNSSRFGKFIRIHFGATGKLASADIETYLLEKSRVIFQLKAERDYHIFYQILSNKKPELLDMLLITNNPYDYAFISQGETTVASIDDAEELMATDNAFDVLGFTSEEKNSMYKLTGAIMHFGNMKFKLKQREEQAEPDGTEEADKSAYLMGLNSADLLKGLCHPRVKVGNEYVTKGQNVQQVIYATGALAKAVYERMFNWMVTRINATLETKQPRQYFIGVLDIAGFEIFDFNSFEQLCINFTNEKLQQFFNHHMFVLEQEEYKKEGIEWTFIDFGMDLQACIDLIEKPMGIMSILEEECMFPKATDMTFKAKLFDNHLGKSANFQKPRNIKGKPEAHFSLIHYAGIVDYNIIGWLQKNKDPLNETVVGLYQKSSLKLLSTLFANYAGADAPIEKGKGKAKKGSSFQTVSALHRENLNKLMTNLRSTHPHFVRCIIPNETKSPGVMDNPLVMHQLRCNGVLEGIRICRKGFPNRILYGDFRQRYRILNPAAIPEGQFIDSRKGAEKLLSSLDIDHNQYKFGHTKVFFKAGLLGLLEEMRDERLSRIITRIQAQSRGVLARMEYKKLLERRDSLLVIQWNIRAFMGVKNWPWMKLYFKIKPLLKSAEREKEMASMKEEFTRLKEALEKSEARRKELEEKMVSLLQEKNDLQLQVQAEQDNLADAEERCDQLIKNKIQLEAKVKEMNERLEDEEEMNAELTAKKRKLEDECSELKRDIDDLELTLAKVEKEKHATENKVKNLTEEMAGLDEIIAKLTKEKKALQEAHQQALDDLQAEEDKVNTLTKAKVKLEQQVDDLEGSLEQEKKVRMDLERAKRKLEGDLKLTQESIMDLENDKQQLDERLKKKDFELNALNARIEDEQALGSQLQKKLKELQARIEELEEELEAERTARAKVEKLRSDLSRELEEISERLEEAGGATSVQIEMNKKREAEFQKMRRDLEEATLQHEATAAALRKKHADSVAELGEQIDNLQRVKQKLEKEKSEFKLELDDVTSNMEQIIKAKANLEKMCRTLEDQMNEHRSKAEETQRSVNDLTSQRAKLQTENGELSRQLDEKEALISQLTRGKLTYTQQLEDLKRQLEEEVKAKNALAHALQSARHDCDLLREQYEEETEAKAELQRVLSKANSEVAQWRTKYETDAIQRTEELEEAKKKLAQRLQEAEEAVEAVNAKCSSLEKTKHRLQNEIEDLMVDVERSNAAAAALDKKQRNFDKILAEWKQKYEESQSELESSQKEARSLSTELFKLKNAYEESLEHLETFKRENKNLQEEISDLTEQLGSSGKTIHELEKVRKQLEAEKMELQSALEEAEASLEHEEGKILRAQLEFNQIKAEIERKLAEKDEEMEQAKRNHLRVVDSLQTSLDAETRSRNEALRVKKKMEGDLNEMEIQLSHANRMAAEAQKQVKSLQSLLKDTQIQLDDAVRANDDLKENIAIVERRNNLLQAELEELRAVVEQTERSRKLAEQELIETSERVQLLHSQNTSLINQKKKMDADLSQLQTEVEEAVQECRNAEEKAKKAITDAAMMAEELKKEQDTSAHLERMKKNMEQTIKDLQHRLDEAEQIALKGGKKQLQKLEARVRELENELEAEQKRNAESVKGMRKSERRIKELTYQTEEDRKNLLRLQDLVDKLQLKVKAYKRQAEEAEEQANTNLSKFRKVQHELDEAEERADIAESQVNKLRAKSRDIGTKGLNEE
T1 sequence (P08590 whole entry partner): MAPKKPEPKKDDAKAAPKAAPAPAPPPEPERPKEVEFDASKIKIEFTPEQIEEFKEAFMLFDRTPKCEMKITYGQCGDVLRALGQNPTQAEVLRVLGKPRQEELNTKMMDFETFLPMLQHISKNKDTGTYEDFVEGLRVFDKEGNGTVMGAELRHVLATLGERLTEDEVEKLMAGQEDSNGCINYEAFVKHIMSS
T1 sequence (P10916 whole entry partner): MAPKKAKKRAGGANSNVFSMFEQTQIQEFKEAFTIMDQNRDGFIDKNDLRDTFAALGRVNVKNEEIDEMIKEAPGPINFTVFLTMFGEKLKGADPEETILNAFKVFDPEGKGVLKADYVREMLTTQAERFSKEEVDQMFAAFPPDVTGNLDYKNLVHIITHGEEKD

As to `Cc1ccc(S(=O)(=O)NCc2ccccc2)cc1` [N-benzyl-p-tolyl-sulfonamide (BTS), N-benzyl-p-tolyl-sulfonamide], the “protection of muscles from pathological muscle derangement” value in experiment [1] was “protect muscles from pathological muscle derangement”. For the compound `O=C(Cn1nc(-c2ccccc2)ccc1=O)NCc1ccccc1Cl` [IIIc-47, N-(2-chlorobenzyl)-2-(6-oxo-3-phenylpyridazin-1(6H)-yl)acetamide], the IC50 is over 100 µM in experiment [2] (Table 5C) and 10 to 100 µM in experiment [3] (Table 4C). As for `COc1ccc(-c2ccc(=O)n(CC(=O)Nc3cccc(C)n3)n2)cc1` [IIIb-59, 2-(3-(4-methoxyphenyl)-6-oxopyridazin-1(6H)-yl)-N-(6-methylpyridin-2-yl)acetamide], the IC50 in experiment [2] (Table 5C) and in experiment [3] (Table 4C) was over 100 µM in each case. For `COc1ccc(-c2ccc(=O)n(CC(=O)NC[C@@H]3CC4C=CC3C4)n2)cc1` (stereo partly drawn) [IIIb-39, N-(((2R)-bicyclo[2.2.1]hept-5-en-2-yl)methyl)-2-(3-(4-methoxyphenyl)-6-oxopyridazin-1(6H)-yl)acetamide], the IC50 in experiment [2] (Table 5C) and in experiment [3] (Table 4C) was over 100 µM throughout. On to `CCNC(=O)Cn1nc(-c2ccc(CC(F)(F)F)nc2)ccc1=O` [Compound I-37, N-ethyl-2-(6-oxo-3-(6-(2,2,2-trifluoroethyl)pyridin-3-yl)pyridazin-1(6H)-yl)acetamide], for which the concentration for half-maximal inhibition (IC50) was over 100 µM in experiment [2] (Table 5A) and 10 to 100 µM in experiment [3] (Table 4A). For the compound `CCNC(=O)Cn1nc(-c2cnc(NC34CC(C3)C4)nc2)ccc1=O` [Compound I-59, 2-(3-(2-(bicyclo[1.1.1]pentan-1-ylamino)pyrimidin-5-yl)-6-oxopyridazin-1(6H)-yl)-N-ethylacetamide], the figures for the IC50 in experiment [2] (Table 5A) and in experiment [3] (Table 4A) were over 100 µM and under 10 µM, respectively.

Regarding `COc1ccc(-c2ccc(=O)n(CC(=O)NCc3ccccc3Cl)n2)c(C)c1` [IIIa-22, N-(2-chlorobenzyl)-2-(3-(4-methoxy-2-methylphenyl)-6-oxopyridazin-1(6H)-yl)acetamide], the IC50 was over 100 µM in experiment [2] (Table 5C) and 10 to 100 µM in experiment [3] (Table 4C). In the case of `CCNC(=O)Cn1nc(-c2ccc(OCCC(F)(F)F)nc2)ccc1=O` [Compound I-10, N-ethyl-2-(6-oxo-3-(6-(3,3,3-trifluoropropoxy)pyridin-3-yl)pyridazin-1(6H)-yl)acetamide], the IC50 was over 100 µM in experiment [2] (Table 5A) and 10 to 100 µM in experiment [3] (Table 4A). With `CCNC(=O)Cn1nc(-c2ccc(OC(F)(F)F)nc2)ccc1=O` [Compound I-14, N-ethyl-2-(6-oxo-3-(6-(trifluoromethoxy)pyridin-3-yl)pyridazin-1(6H)-yl)acetamide], the IC50 in experiment [2] (Table 5A) was over 100 µM; in experiment [3] (Table 4A), 10 to 100 µM.

What is called IC50 is the midpoint of a concentration-inhibition curve. Lower therefore signals inhibition by little substance.
